Results reported in US20240246913A1, “2-CARBOXYL-INDOLE INHIBITORS OF METALLO-BETA-LACTAMASES” (Oxford University Innovation Limited, priority 2021, published 2024).

Experiments:
[1] = Plasma protein binding, equilibrium dialysis, mouse plasma; format: in vitro ADME; details: pH 7.4, equilibrium dialysis (RED) 4 hours at 37° C., read-out: Plasma protein binding, fu, Mouse
Summary of the method: (§1)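 Compound at 10 μM in plasma dialysed against 67 mM phosphate buffer pH 7.4 for 4 h at 37° C. in RED device; unbound fraction from buffer and plasma levels by LC-MS/MS. Plasma stability checked in parallel over 4 h at 37° C. versus frozen control.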

Escherichia coli NDM-7 = assay: Antibiotic susceptibility testing (MIC), EC NDM-7; format: cell-based; details: agar or broth dilution (CLSI/EUCAST)
Description: (§2) Antibiotic susceptibility testing was performed using the agar or broth dilution method, in line with the Clinical and Laboratory Standards Institute (CLSI) and European Committee on Antimicrobial Susceptibility Testing (EUCAST) requirements.

NDM-1 = NDM-1 (Klebsiella pneumoniae, UniProt C7C422); assay: MBL inhibition, FC-5 fluorescence assay, NDM-1; format: biochemical; details: FC-5 cephalosporin substrate, fluorescence; ranges of obtained pIC50; read-out: pIC50 NDM-1 (converted)
Summary of the method: (§3)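 Compound dilutions are incubated with enzyme and FC-5; the released fluorophore is read kinetically at ex 380/em 460 nm. Initial velocities are normalized and fitted (log inhibitor vs response, variable slope).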

[2] = Metabolic stability in human hepatocytes; format: in vitro ADME; details: cryopreserved human hepatocytes, 1 μM compound, 37° C., up to 90 min, read-out: Metabolic stability in hepatocytes, in vitro t1/2, Human
Summary of the method: (§4)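 Cryopreserved hepatocytes at 1.0×10^6 cells/ml in Williams medium E were incubated with 1 μM compound (final) at 37° C. Samples at 0, 5, 15, 30, 60 and 90 min were quenched with MeCN containing warfarin internal standard and analysed by LC-MS/MS.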

VIM-1 = VIM-1 (Pseudomonas aeruginosa, UniProt A0A0F7KYQ8); assay: MBL inhibition, FC-5 fluorescence assay, VIM-1; format: biochemical; details: FC-5 cephalosporin substrate, ranges of obtained pIC50, read-out: pIC50 VIM-1 (converted)
Summary of the method: as §3

bacteria = assay: Thigh and/or septicaemia mouse model of infection, with meropenem; format: in vivo; details: NMRI mice; single dose with meropenem subcutaneous 1 h after inoculation; endpoint 3 h after treatment initiation
Description: Female NMRI mice (5-6 weeks old, 26-30 gram, n=5) were rendered neutropenic via intraperitoneal injection of two doses of cyclophosphamide on day 4 and day 1 before infection. The animals were infected via intramuscular injection of an inoculum containing 10^6 CFU/mL of bacteria in the left thigh. The animals were treated with a single dose of meropenem subcutaneous +/− inhibitor 1 h after inoculation, and animals were either euthanised at the start of treatment or at the study endpoint at 3 h after treatment initiation. Clinical scores were monitored at 1 and 4 hours post inoculation and were in all cases mild or moderate. Thighs were aseptically removed from the animals, homogenised, diluted, and plated for incubation. Bacterial counting was performed after 18-22 h of incubation at 35° C. in ambient air.
Immunocompetent female NMRI mice mice (5-6 weeks old, 26-30 gram, n=5) were inoculated intraperitoneally with 0.5 ml inoculum containing 5×10^5 CFU suspended in 5% porcine mucin.
The animals were treated with a single dose of meropenem subcutaneous+/−metallo-b-lactamase inhibitor intravenous 1 h after inoculation. Animals were either euthanised at the start of treatment or at the study endpoint at 3 h after treatment initiation. Clinical scores were monitored at 1 and 4 hours post inoculation and were in all cases mild or moderate. Mice were anaesthetised anesthetized with a buprenorphine/tiletamine/zolazepam cocktail and bled, then euthanized and the peritoneum flushed with 2 ml sterile 0.9% NaCl and collected. The blood and/or peritoneal flush were serially diluted and plated for incubation. Bacterial counting was performed after 18-22 h of incubation at 35° C. in ambient air.

[3] = Metabolic stability in mouse hepatocytes; format: in vitro ADME; details: cryopreserved mouse hepatocytes, 1 μM compound, 37° C., up to 90 min, read-out: Metabolic stability in hepatocytes, in vitro t1/2, Mouse
Summary of the method: as §4

[4] = test system: Acinetobacter baumannii NDM-1; assay: Antibiotic susceptibility testing (MIC), AB NDM-1; format: cell-based; details: agar or broth dilution (CLSI/EUCAST)
Description: as §2

IMP-1 = IMP-1 (Serratia marcescens, UniProt P52699); assay: MBL inhibition, FC-5 fluorescence assay, IMP-1; format: biochemical; details: FC-5 cephalosporin substrate, fluorescence; ranges of obtained pIC50; read-out: pIC50 IMP-1 (converted)
Summary of the method: as §3

Escherichia coli NDM-1 = assay: Antibiotic susceptibility testing (MIC), EC NDM-1; format: cell-based; details: agar or broth dilution (CLSI/EUCAST)
Description: as §2

[5] = Plasma protein binding, equilibrium dialysis, human plasma; format: in vitro ADME; details: pH 7.4, equilibrium dialysis (RED) 4 hours at 37° C., read-out: Plasma protein binding, fu, Human
Summary of the method: as §1

VIM-2 = VIM-2 (Escherichia coli, UniProt Q5U7L7); assay: MBL inhibition, FC-5 fluorescence assay, VIM-2; format: biochemical; details: FC-5 cephalosporin substrate, ranges of obtained pIC50, read-out: pIC50 VIM-2 (converted)
Summary of the method: as §3

NDM-1, sequence (C7C422 29-270, looked up, species assumed): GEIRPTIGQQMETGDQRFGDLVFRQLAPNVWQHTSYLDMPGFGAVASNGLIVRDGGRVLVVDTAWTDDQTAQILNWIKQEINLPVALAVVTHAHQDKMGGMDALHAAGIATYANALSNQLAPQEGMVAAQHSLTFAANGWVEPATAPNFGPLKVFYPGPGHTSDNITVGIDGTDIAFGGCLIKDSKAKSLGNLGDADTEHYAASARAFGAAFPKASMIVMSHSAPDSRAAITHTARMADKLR
IMP-1, sequence (P52699 19-246, looked up, species assumed): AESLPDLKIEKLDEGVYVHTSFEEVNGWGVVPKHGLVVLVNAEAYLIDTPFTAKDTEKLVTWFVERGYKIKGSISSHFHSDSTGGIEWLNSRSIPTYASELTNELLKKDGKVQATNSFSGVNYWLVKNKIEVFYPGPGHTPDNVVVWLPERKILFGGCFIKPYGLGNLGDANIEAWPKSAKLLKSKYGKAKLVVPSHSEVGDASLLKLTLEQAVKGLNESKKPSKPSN

In the case of `C[C@@H](c1cccc2c(-c3ccc(NS(C)(=O)=O)c(F)c3)c(C(=O)O)[nH]c12)n1cc(CN2CC(N)C2)oc1=O` [IC-57, 7-[(1S)-1-{5-[(3-Aminoazetidin-1-yl)methyl]-2-oxo-2,3-dihydro-1,3-oxazol-3-yl}ethyl]-3-(3-fluoro-4-methanesulfonamidophenyl)-1H-indole-2-carboxylic acid], the fraction unbound at 4 h, 10 μM [1] is reported as 0.005 to 0.05, the “MIC values EC NDM-7” value (Escherichia coli NDM-7) is reported as “A (A = MIC values ≤ 1)” and the IC50 (NDM-1) is reported as less than 0.1 nM. The half-life at 1 μM [2] was 150 to 400 min, the IC50 (VIM-1) was 1 to 10 nM and the “Dose required to reduce minim 1 log fold CFU in a thigh and or a sepsis animal model” value (bacteria) was “B (B = 30-10 mg/kg)”. For the same compound, the half-life at 1 μM [3] was less than 150 min, the “MIC values AB NDM-1” value [4] was “A (A = MIC values ≤ 1)” and the IC50 (IMP-1) was greater than 10 nM. For the same compound, the “MIC values EC NDM-1” value (Escherichia coli NDM-1) was “A (A = MIC values ≤ 1)”, the fraction unbound at 4 h, 10 μM [5] was 0.05 to 0.25 and the IC50 (VIM-2) was 0.1 to 1 nM.

In the case of `C[C@@H](c1cccc2c(-c3ccc(CS(C)(=O)=O)c(F)c3)c(C(=O)O)[nH]c12)N1C[C@]2(C[C@@H](CN)C2)OC1=O` [IC-60, 7-((1S)-1-(2S,4r)-(2-(aminomethyl)-6-oxo-5-oxa-7-azaspiro[3.4]oct-7-yl)ethyl)-3-(3-fluoro-4-((methylsulfonyl)methyl)phenyl)-1H-indole-2-carboxylic acid], the fraction unbound at 4 h, 10 μM [1] is reported as 0.05 to 0.25, the “MIC values EC NDM-7” value (Escherichia coli NDM-7) is reported as “A (A = MIC values ≤ 1)” and the IC50 (NDM-1) is reported as less than 0.1 nM. For the same compound, the half-life at 1 μM [2] was greater than 400 min, the IC50 (VIM-1) was 0.1 to 1 nM and the “Dose required to reduce minim 1 log fold CFU in a thigh and or a sepsis animal model” value (bacteria) was “C (C = 5-10 mg/kg)”. The half-life at 1 μM [3] was greater than 400 min, the “MIC values AB NDM-1” value [4] was “A (A = MIC values ≤ 1)” and the IC50 (IMP-1) was greater than 10 nM. The “MIC values EC NDM-1” value (Escherichia coli NDM-1) was “A (A = MIC values ≤ 1)”, the fraction unbound at 4 h, 10 μM [5] was greater than 0.25 and the IC50 (VIM-2) was 0.1 to 1 nM.

In the case of `C[C@@H](c1cccc2c(-c3ccc(CS(C)(=O)=O)c(F)c3)c(C(=O)O)[nH]c12)N1C[C@]2(C[C@H](CN)C2)OC1=O` [IC-61, 7-((1S)-1-(2R,4s)-(2-(aminomethyl)-6-oxo-5-oxa-7-azaspiro[3.4]oct-7-yl)ethyl)-3-(3-fluoro-4-((methylsulfonyl)methyl)phenyl)-1H-indole-2-carboxylic acid], the fraction unbound at 4 h, 10 μM [1] is reported as 0.005 to 0.05, the “MIC values EC NDM-7” value (Escherichia coli NDM-7) is reported as “A (A = MIC values ≤ 1)” and the IC50 (NDM-1) is reported as less than 0.1 nM. For the same compound, the half-life at 1 μM [2] was greater than 400 min, the IC50 (VIM-1) was 0.1 to 1 nM and the “Dose required to reduce minim 1 log fold CFU in a thigh and or a sepsis animal model” value (bacteria) was “C (C = 5-10 mg/kg)”. For the same compound, the half-life at 1 μM [3] was greater than 400 min, the “MIC values AB NDM-1” value [4] was “B (B MIC values 2 ÷ 8)” and the IC50 (IMP-1) was 1 to 10 nM. For the same compound, the “MIC values EC NDM-1” value (Escherichia coli NDM-1) was “A (A = MIC values ≤ 1)”, the fraction unbound at 4 h, 10 μM [5] was 0.05 to 0.25 and the IC50 (VIM-2) was less than 0.1 nM.
